ChEMBL document CHEMBL1146653, “Potent and selective, sulfamide-based human beta 3-adrenergic receptor agonists” (Bioorg Med Chem Lett, 2004)
pEC50: −log10 of the molar value.

Assays:
[1] = molecular target: Beta-2 adrenergic receptor (Homo sapiens) (UniProt P07550); assay: Intrinsic activity (IA) human Beta-2 adrenergic receptor (at 30 uM, represent by the percentage of the maximal response attained by isoproterenol); format: functional
[2] = molecular target: T1, Beta-3 adrenergic receptor (Homo sapiens, UniProt P13945); assay: Intrinsic activity (IA) at human Beta-3 adrenergic receptor (represented by the percentage of the maximal response attained by isoproterenol); format: functional
Target sequence in this assay (P13945 whole entry, looked up): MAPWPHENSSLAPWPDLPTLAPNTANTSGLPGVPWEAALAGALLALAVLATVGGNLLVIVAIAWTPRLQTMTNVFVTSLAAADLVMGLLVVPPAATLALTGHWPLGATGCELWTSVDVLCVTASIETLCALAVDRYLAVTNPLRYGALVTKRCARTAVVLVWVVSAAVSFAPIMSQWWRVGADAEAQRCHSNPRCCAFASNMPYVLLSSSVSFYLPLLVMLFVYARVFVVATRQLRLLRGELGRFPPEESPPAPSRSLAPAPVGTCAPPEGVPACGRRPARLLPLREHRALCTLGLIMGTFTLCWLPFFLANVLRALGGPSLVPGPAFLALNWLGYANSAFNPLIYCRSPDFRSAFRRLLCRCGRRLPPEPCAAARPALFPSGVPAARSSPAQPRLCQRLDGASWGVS

[3] = molecular target: Beta-1 adrenergic receptor (Homo sapiens) (UniProt P08588); assay: Intrinsic activity (IA) at human Beta-1 adrenergic receptor (at 30 uM, represented by the percentage of the maximal response attained by isoproterenol); format: functional
[4] = molecular target: T1, Beta-3 adrenergic receptor; assay: Agonist activity (EC50) was assessed by measuring cAMP levels in CHO cells expressing cloned human Beta-3 adrenergic receptor; format: functional, cell-based
Target sequence in this assay (P13945 whole entry): as the sequence (P13945 whole entry, looked up) above

[5] = molecular target: Beta-1 adrenergic receptor (Homo sapiens) (UniProt P08588); assay: Intrinsic activity (IA) of 30 uM compound at human Beta-1 adrenergic receptor represent the percentage of the maximal response attained by isoproterenol

Chain of Beta-1 adrenergic receptor (Homo sapiens) (P08588 whole entry, looked up): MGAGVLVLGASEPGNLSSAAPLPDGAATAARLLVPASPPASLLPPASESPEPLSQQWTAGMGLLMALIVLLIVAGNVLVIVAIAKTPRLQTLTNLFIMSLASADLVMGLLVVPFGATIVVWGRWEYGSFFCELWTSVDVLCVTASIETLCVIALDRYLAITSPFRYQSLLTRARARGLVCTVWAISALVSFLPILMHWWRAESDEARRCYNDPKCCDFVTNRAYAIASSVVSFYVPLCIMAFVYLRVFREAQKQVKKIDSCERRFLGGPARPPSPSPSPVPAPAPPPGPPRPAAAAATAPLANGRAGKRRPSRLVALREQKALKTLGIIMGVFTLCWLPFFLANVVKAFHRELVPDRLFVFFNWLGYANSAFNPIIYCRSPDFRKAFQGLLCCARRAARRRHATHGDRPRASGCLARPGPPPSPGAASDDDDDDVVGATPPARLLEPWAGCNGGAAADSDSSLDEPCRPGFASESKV
Chain of Beta-2 adrenergic receptor (Homo sapiens) (P07550 whole entry, looked up): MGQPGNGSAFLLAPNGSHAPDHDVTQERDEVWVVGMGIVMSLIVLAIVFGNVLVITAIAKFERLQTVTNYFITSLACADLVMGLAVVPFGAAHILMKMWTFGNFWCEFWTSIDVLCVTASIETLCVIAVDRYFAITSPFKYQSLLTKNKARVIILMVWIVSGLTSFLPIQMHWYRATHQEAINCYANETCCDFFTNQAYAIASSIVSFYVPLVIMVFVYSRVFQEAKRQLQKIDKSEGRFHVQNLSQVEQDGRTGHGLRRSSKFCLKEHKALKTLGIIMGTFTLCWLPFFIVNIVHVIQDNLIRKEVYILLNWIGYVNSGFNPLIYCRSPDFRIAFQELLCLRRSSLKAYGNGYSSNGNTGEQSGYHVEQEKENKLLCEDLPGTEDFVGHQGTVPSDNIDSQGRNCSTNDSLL

| Structure (SMILES) | IA [1] | IA [2] | IA [3] | pEC50 [4] | IA [5] |
| --- | --- | --- | --- | --- | --- |
| C[C@@H]1C[C@H](C)CN(S(=O)(=O)Nc2ccc(CCNC[C@H](O)c3cccnc3)cc2)C1 | 17 | 95 | 11 | 7.62 |  |
| O=S(=O)(Nc1ccc(CCNC[C@H](O)c2cccnc2)cc1)N1CCC(c2ccccc2)CC1 | 2 | 100 | 2 | 7.64 |  |
| CN(C)S(=O)(=O)Nc1ccc(CC(C)(C)NC[C@H](O)c2cccnc2)cc1 | 7 | 98 | 10 | 7.42 |  |
| CN(C1CCCCC1)S(=O)(=O)Nc1ccc(CCNC[C@H](O)c2cccnc2)cc1 | 16 | 67 | 15 | 6.74 |  |
| O=S(=O)(Nc1ccc(CCNC[C@H](O)c2cccnc2)cc1)N1CCCCC1 | 6 | 77 | 7 | 7.00 |  |
| CN1CCN(S(=O)(=O)Nc2ccc(CC(C)(C)NC[C@H](O)c3cccnc3)cc2)CC1 | 4 | 79 | 7 | 7.39 |  |
| CN(C)S(=O)(=O)Nc1ccc(CCNC[C@H](O)c2cccc(Cl)c2)cc1 | 6 | 75 | 5 | 6.52 |  |
| CC1CCN(S(=O)(=O)Nc2ccc(OCCNC[C@H](O)c3cccnc3)cc2)CC1 | 7 | 98 | 5 | 5.87 |  |
| CC(C)(Cc1ccc(NS(=O)(=O)NC2CCCCC2)cc1)NC[C@H](O)c1cccnc1 | 19 | 110 | 17 | 7.60 |  |
| O=S(=O)(Nc1ccc(CCNC[C@H](O)c2cccnc2)cc1)c1ccc(-c2nc(-c3ccc(C(F)(F)F)cc3)cs2)cc1 | 1 | 92 | 1 |  |  |
| CN(C)S(=O)(=O)N(C)c1ccc(CCNC[C@H](O)c2cccc(Cl)c2)cc1 | 1 | 105 | 2 | 5.00 |  |
| O=S(=O)(Nc1ccc(CCNC[C@H](O)c2cccc(Cl)c2)cc1)NC1CCCCC1 | 7 | 63 |  | 6.33 | 10 |
| O=S(=O)(Nc1ccc(CCNC[C@H](O)c2cccnc2)cc1)NC1CCCCC1 | 0 | 71 | 0 | 5.84 |  |
| CN(C1CCCCC1)S(=O)(=O)Nc1ccc(CCNC[C@H](O)c2cccc(Cl)c2)cc1 | 5 | 62 | 6 | 6.27 |  |
| COCCNS(=O)(=O)Nc1ccc(CC(C)(C)NC[C@H](O)c2cccnc2)cc1 | 24 | 103 | 28 | 6.78 |  |
| CC1CCN(S(=O)(=O)Nc2ccc(CCNC[C@H](O)c3cccnc3)cc2)CC1 | 8 | 80 | 6 | 7.44 |  |
| O=S(=O)(Nc1ccc(CCNC[C@H](O)c2cccc(Cl)c2)cc1)N1CCCCC1 | 5 | 84 | 4 | 6.21 |  |
| CC(C)(Cc1ccc(NS(=O)(=O)Nc2ccccc2)cc1)NC[C@H](O)c1cccnc1 | 8 | 107 | 29 | 8.15 |  |
| CC(C)(Cc1ccc(NS(=O)(=O)N2CCC(c3ccccc3)CC2)cc1)NC[C@H](O)c1cccnc1 | 9 | 106 | 20 | 7.33 |  |
| C[C@@H]1CN(S(=O)(=O)Nc2ccc(CC(C)(C)NC[C@H](O)c3cccnc3)cc2)C[C@H](C)O1 | 8 | 85 | 10 | 8.10 |  |
| CN(C)S(=O)(=O)Nc1ccc(CCNC[C@H](O)c2cccnc2)cc1 | 11 | 84 | 6 | 6.58 |  |
| CN(C)S(=O)(=O)Nc1ccc(OCCNC[C@H](O)c2cccnc2)cc1 | 4 | 96 | 3 | 6.03 |  |
| CC1CCN(S(=O)(=O)Nc2ccc(CC(C)(C)NC[C@H](O)c3cccnc3)cc2)CC1 | 6 | 91 | 12 | 8.00 |  |
| C[C@@H]1C[C@H](C)CN(S(=O)(=O)Nc2ccc(CC(C)(C)NC[C@H](O)c3cccnc3)cc2)C1 | 11 | 89 | 7 | 8.40 |  |
| CC(C)(Cc1ccc(NS(=O)(=O)N2CCN(Cc3ccccc3)CC2)cc1)NC[C@H](O)c1cccnc1 | 13 | 105 | 46 | 7.74 |  |
